Assay results published in patent publication US20100190737A1, “COMPOSITIONS COMPRISING INOSINE AND OROTIC ACID AND METHODS OF USE THEREOF FOR THE TREATMENT OF CERTAIN HEART CONDITIONS AND ENHANCEMENT OF WORK CAPACITY” (NUTRITIONAL RESEARCH GROUP LLC, priority 2009, published 2010).

Tests used:
[1] = test system: patients with arrhythmia; test: Case studies: patients with arrhythmia given inosine/magnesium orotate capsules; format: in vivo, human; conditions: Example 5
Description: Another cardiac condition prevalent in the population is arrhythmia. Cardiac arrhythmia is characterized by an abnormal rate of cardiac muscle contractions. The rate of contractions may be too slow, too fast, too frequent or too infrequent. The present pharmaceutical composition stabilizes the cardiac arrhythmia.

[2] = test system: chinchilla rabbits with experimental myocardial infarction; test: Experimentally-induced myocardial infarction (coronary artery ligation); format: in vivo, rabbit; conditions: for NN of Animals With Necrosis: of 10 animals; for EKG Q: oral 100 mg/kg BW of each ingredient daily
Experimental: Histological, light microscopic methods of investigation have been employed to study the zone of necrosis, perinecrotic zone and myocardium regions spaced from the time of infarction by 7 and 14 days after the infarction event. Dynamic electrocardiographic observation over the animals was carried out during the first day and during the following 7 and 14 days. The study of the total cross-sectional patterns of a rabbit's heart has made it possible to precisely define these zones. The first Group of 10 animals was sham-operated without treatment (Group I, positive control-Intact, no MI). […] Group II animals were without treatment (negative control-MI Control).

[3] = test system: white rats; test: Long-term (6 months) work capacity in trained and non-trained rats; conditions: untrained rats
Experimental: Seventy two white rats were randomly placed in 6 groups (12 animals each), to test the effectiveness of training and to determine morphological and physiological alterations in the rats. In Group I, control rats were nontrained and not administered either of inosine or the combination of inosine and orotate; Group II comprised non-trained rats to which were administered inosine (25 mg/kg/body weight; Group III comprised non-trained rats to which were administered the combination of inosine plus potassium orotate (25 mg/kg/body weight of inosine and 50 mg/kg/body weight potassium orotate); Group IV comprised trained rats that were not administered either of inosine or the combination of inosine and orotate; Group V comprised trained rats to which was administered inosine alone (25 mg/kg/body weight), and Group VI comprised trained rats to which was administered the combination of inosine plus potassium orotate (25 mg/kg/body weight of inosine and 50 mg/kg/body weight potassium orotate).
Training of rats consisted of their forced swimming in a water bath (28-30° C.) with a weight fixed on their backs (7.5% of the rat body weight). During the first two weeks the animals swam daily for 5-10 minutes, after which we determined the individual maximum time of swimming to exhaustion (i.e. maximum work capacity) for each animal and then calculated the mean maximum time for each group. After 2 weeks these initial maximum work capacity values were used for planning and performing additional swimming training.
The functional condition of the rats at rest was estimated from their work capacity (maximum swimming time), body weight increase, EKG tests, oxygen consumption and sodium and potassium levels in the myocardium in a relatively quiet state. The morphological state of the heart and other viscera were rated from their absolute and relative weights, and also from histological and histochemical examinations of the myocardium. Also determined were the amounts of glycogen in the m. quadriceps (quadriceps group of muscles) of the hip, the myocardium and the liver. All the quantitative results obtained were processed with conventional statistical procedures.

[4] = test system: rats with experimental aortic stenosis; test: Short term (7 day) experimental aortic stenosis: heart weight and swimming to exhaustion; format: in vivo, rat; conditions: EAS rats; for Heart Weight: intragastric daily
Description: There are two 7 day experiments in this portion of the study; a preliminary 7 day study with 54 rats in 9 groups (6 rats per group) to determine optimal dosage levels for the separate inosine or potassium orotate ingredients for farther experimentation by determination of maximal heart weight development and work capacity; and then a study with 30 rats in 5 groups (6 rats per group) using the optimal single ingredient dosage levels for comparison with the results of a composition of the ingredients. All compounds were administered intragastrically through a tube after being dissolved in approximately 1 ml of water.
A single control group received a sham operation, while the rest of the groups received experimental aortic stenosis (“EAS”) operations (all according to Beznak in Journal Physiol. (Lond.) 120.23P, 1953 as modified by Kogan, Bull eksper. Biol. Med., 26:112, 1961 and then the other 13 groups received various treatments and dosages of inosine or potassium orotate or a composition of the two ingredients after the optimal inosine and potassium orotate dosages were determined. All animals were tested at the beginning and end of the experiment for swimming to exhaustion times with a 7.5% body weight load attached to their tails.
Sach compound, i.e., inosine and potassium orotate, was administered at different doses and the level of heart hypertrophy and work capacity was observed. Each of the compounds was evaluated in four doses: 12.5 mg/kg, 25 mg/kg, 50 mg/kg and 100 mg/kg body weight. Six animals were used in each group for inosine [4 groups] and potassium orotate [4 groups] plus the one control group (sham operated, no treatment); 54 animals in total.
Thirty white rats were divided into 5 groups (6 animals in each group). Group I was a sham-operated control group, Group II animals with experimental aortic stenosis but were untreated, Groups III, IV & V animals, all with experimental aortic stenosis received by an intragastric tube each day, either inosine (25 mg/kg body weight), potassium orotate (50 mg/kg body weight) or an composition of inosine (25 mg/kg body weight) plus potassium orotate (50 mg/kg body weight), respectively.

[5] = test system: mice; test: Short term (14 day) work capacity: swimming lengths within 30 minutes, hepatic glycogen; format: in vivo, mouse; conditions: for Swimming lengths / increase in number of swimming lengths: 14 days
Experimental: Seventy two animals (mice) were divided into 12 groups of 6 animals each; a control group (untreated) and 11 test groups that were intragastrically administered varying daily doses of inosine, potassium orotate or an inosine plus potassium orotate combination (the “combination”) for 14 days. […] The swimming exercise consisted of forcing the animals to perform repetitive swimming in a three meter long channel until exhaustion. The level of exhaustion was determined by a count of the number of swimming lengths which each animal did within 30 minutes. A lower number of swimming lengths indicated a greater level of exhaustion, whereas a higher number of lengths indicated a greater work capacity.

[6] = seventh day, inosine 25 mg/kg BW, potassium orotate 50 mg/kg BW, alone or together
[7] = seventh day, inosine 25 mg/kg BW, potassium orotate 50 mg/kg BW, alone or together, listed as orotate

CCC(=O)O[C@@H](O[P@](=O)(CCCCc1ccccc1)CC(=O)N1C[C@H](C2CCCCC2)C[C@H]1C(=O)[O-])C(C)C.[Na+] [Monopril]
blood pressure (systolic over diastolic) ([1]; 10 mg Monopril with 50 mg Toprol daily, one month, from 165/105): 150/95
blood pressure (systolic over diastolic) ([1]; Monopril increased to 20 mg): 145/90

COCCc1ccc(OCC(O)CNC(C)C)cc1 (centres unmarked) [Toprol]
arrhythmia episodes per week ([1]; 50 mg Toprol daily, one month, from 3-4 times weekly): 2-3 per week

O=C(O)c1cc(=O)[nH]c(=O)[nH]1 [orotic acid]
Thickness of Left Ventricular Wall ([2]; Day 7): 5.0 ± 0.61 mm
EKG QRS ([2]; Day 7, 100 mg/kg BW each): 0.07 ± 0.003 s
EKG R ([2]; Day 7, 100 mg/kg BW each): 4.2 ± 0.030 mm
NN of Animals With Necrosis ([2]; Day 7, MI control 10): 5
EKG Q ([2]; Day 7): 1.0 ± 0.02 mm
EKG QRS ([2]; Day 14): 0.06 ± 0.016 s
EKG R ([2]; Day 14): 4.4 ± 0.27 mm
Thickness of Left Ventricular Wall ([2]; Day 14): 5.4 ± 0.23 mm
NN of Animals With Necrosis ([2]; Day 14, MI control 3): 0
EKG Q ([2]; Day 14): 0.6 ± 0.05 mm
reduction in necroses ([2]; administered individually, 100 mg/kg): 50%
hemorrhages or infiltration in the infarction zone ([2]; by the fourteenth day): virtually had no hemorrhages or infiltration in the infarction zone
restoration of EKG readings ([2]; by the seventh experimental day): nearly a complete restoration of the voltage of EKG waves and of the systolic index

O=C([O-])c1cc(=O)[nH]c(=O)[nH]1.[K+] [potassium orotate]
Heart weight after 6 mo. [3]: 304 ± 9.2 mg/100gk BW
Oxygen consumption End of experiment [3]: 27.0 ± 0.60 ml/min/kg BW
Swimming time Before [3]: 72 ± 4.0 min
Glycogen in m. quadriceps, After work ([3]; end of experiments): 488 ± 15.0
Glycogen in m. quadriceps, In rest ([3]; end of experiments): 860 ± 16.0
Swimming time After 6 mo. ([3]; INO 25 mg/kg, PO 50 mg/kg): 80 ± 4.2 min
swimming time ([4]; day 7, 12.5 mg/kg intragastrically, EAS control 15±5.0, sham 62±5.0): 18 ± 4.0 min
swimming time ([4]; day 7, 25 mg/kg): 22 ± 3.0 min
swimming time ([4]; day 7, 50 mg/kg): 32 ± 3.0 min
swimming time ([4]; day 7, 100 mg/kg): 30 ± 3.0 min
relative heart weight ([4]; seventh day, 12.5 mg/kg, EAS control 400±8.9, sham 300±5.0): 420±6.0 mg/100 g. body weight
relative heart weight ([4]; seventh day, 25 mg/kg): 440±11 mg/100 g. body weight
relative heart weight ([4]; seventh day, 50 mg/kg): 460±16 mg/100 g. body weight
relative heart weight ([4]; seventh day, 100 mg/kg): 465±15 mg/100 g. body weight
swimming time [4, 6]: 33 ± 4 min
Heart Weight [4, 6]: 460±16 mg/100 gr BW
Heart Weight [4, 7]: 460 ± 16 mg/100 gr BW
swimming time [4, 7]: 33 ± 4.0 min
Swimming lengths ([5]; 25 mg/kg BW): 40.2
increase in number of swimming lengths ([5]; 25 mg/kg/body weight daily): 60.7%
Swimming lengths ([5]; 50 mg/kg BW): 45.6
increase in number of swimming lengths ([5]; 50 mg/kg/body weight daily): 82.2%
Swimming lengths ([5]; 100 mg/kg BW): 56.3
increase in number of swimming lengths ([5]; 100 mg/kg/body weight daily): 125%
Swimming lengths ([5]; 200 mg/kg BW): 44.6
increase in number of swimming lengths ([5]; 200 mg/kg/body weight daily): 78.3%
mean decrease of hepatic glycogen stores during the swimming exercise ([5]; controls 67.5% from baseline): 18.5%
increased hepatic glycogen content ([5]; inosine 25 mg/kg, potassium orotate 50 mg/kg, or combination): 18%
